# From US7642229B2, “Pharmaceutical composition and a product which includes a substituted acryloyl distamycin derivative, an antimicrotubule agent and/or an antimetabolite” (Nerviano Medical Sciences S.r.l., priority 2000, dated 2010)
# Tested on: disseminated L1210 murine leukemia
# Details: for Tox (number of toxic deaths/number of mice) / ILS % (increase in life span: [(median survival time of treated mice/median survival time of controls) × 100] − 100): L1210 cells 10^5/mouse iv on day 0, PNU 166196 iv + 1.6, 0.78 mg/kg/day; for Tox (number of toxic deaths/number of mice): gemcitabine iv + 1, 15 mg/kg/day; for ILS % (increase in life span: [(median survival time of treated mice/median survival time of controls) × 100] − 100): gemcitabine iv + 1, 15 mg/kg/day (2 h after PNU 166196 administration); for ILS % values: text: gemcitabine 15 mg/kg day +1 after tumor injection, PNU 166196 0.7 mg/kg days +1,6, combination at the same doses and schedule
Structure (SMILES),Tox (number of toxic deaths/number of mice),ILS % (increase in life span: [(median survival time of treated mice/median survival time of controls) × 100] − 100) [%],ILS % values [%],"toxicity (text: gemcitabine alone 15 mg/kg day +1, PNU 166196 alone 0.7 mg/kg days +1,6)"
"C=C(Br)C(=O)Nc1cc(C(=O)Nc2cc(C(=O)Nc3cc(C(=O)Nc4cc(C(=O)NCCNC(=N)N)n(C)c4)n(C)c3)n(C)c2)n(C)c1.Cl [PNU 166196, N-(5-{[(5-{[(5-{[(2-{[amino(imino)methyl]amino}ethyl)amino]carbonyl}-1-methyl-1H-pyrrol-3-yl)amino]carbonyl}-1-methyl-1H-pyrrol-3-yl)amino]carbonyl}-1-methyl-1H-pyrrol-3-yl)-4-[(2-bromoacryloyl)amino]-1-methyl-1H-pyrrole-2-carboxamide hydrochloride]",0/10,58,58,without toxicity
"Nc1ccn([C@@H]2O[C@H](CO)[C@@H](O)C2(F)F)c(=O)n1 [Gemcitabine, gemcitabine, reference compound]",0/10,50,50,–
